Experiments:
Type in all cases: physicochemical
[1] = Relaxivity measurements at 1.41 T; settings: 1.41 T, 37° C., normalized to Gd; for r1 FBS: fetal bovine serum
Description: Relaxivity measurements at 1.41 T were performed using a MiniSpec mq60 spectrometer (Bruker Analytik, Karlsruhe, Germany) operating at a resonance frequency of 60 MHz and a temperature of 37° C. The T1 relaxation times were determined using the standard inversion recovery (IR) method with a fixed relaxation delay of at least 5×T1. The variable inversion time (TI) was calculated automatically by the standard software of the MiniSpec mq60 (8 steps). The T2 measurements were done by using a Carr-Purcell-Meiboom-Gill (CPMG) pulse sequence, applying a relaxation delay of at least 5×T1.
Each relaxivity measurement was performed using three different Gd concentrations (3 concentrations between 0.05 and 2 mM). The T1 and T2 relaxation times of the example compounds 1-10 were measured in different media for example in water, fetal bovine serum (FBS, Sigma, F7524) and human plasma.
(§1) Human plasma preparation: For each experiment fresh blood was taken from a volunteer using 10 mL citrate-tubes (Sarstedt S-Monovette 02.1067.001, 10 mL, Citrate). The 10 mL citrate-tubes were carefully inverted 10 times to mix blood and anticoagulant and centrifuged for 15 minutes at 1811 g at room temperature (Eppendorf, Centrifuge 5810R).
The relaxivities ri (where i=1, 2) were calculated on the basis of the measured relaxation rates Ri in water and plasma: Ri=Ri(0)+ri[CGd], where Ri(0) represent the relaxation rate of the respective solvent and CGd the concentration of the compound normalized to the Gadolinium. The Gadolinium concentrations of the investigated solutions were verified by Inductively Coupled Plasma Mass Spectroscopy (ICP-MS Agilent 7500a, Waldbronn, Germany).

[2] = Relaxivity measurements at 3.0 T; settings: 37° C., normalized to Gd, average ± standard deviation
Description: Relaxivity measurements at 3.0 T were performed with a whole body 3.0 T MRI Scanner (Philips Intera, Philips Healthcare, Hamburg, Germany) using a knee-coil (SENSE-Knee-8, Philips Healthcare, Hamburg, Germany). The sample tubes (CryoTubetm Vials, Thermo Scientific 1.8 mL, Roskilde, Denmark) were positioned in 3 rows of 4 and 5 tubes in a plastic holder in a box filled with water. The temperature was adjusted to 37° C. For the MRI sequence, the shortest possible echo-time (TE) with 7.46 milliseconds was used. The inversion times were chosen to optimize the sequence to measure T1 values corresponding to the estimated T1 range of all relaxation times of contrast media containing solutions. The following inversion times (TIs) were applied: 50, 100, 150, 200, 300, 500, 700, 1000, 1400, 2100, 3200, and 4500 milliseconds. The sequence was run with a constant relaxation delay of 3.4 seconds after the registration of the last echo (variable TR in the range from 3450 to 7900 milliseconds). For details of the fit procedure, see Rohrer et. al. (Invest. Radiol. 2005; 40, 11: 715-724). The experimental matrix of the phantom measurement was 320×320.
The relaxivities were evaluated using three different concentrations of each compound (3 concentrations between 0.05 and 2 mM).
as §1, with “The T1 relaxation times of the Example compounds 1-6 were measured in water and human plasma. Human” for “Human”
The relaxivities ri (where i=1, 2) were calculated on the basis of the measured relaxation rates Ri in water and plasma: Ri=Ri(0)+ri[CGd], where Ri(0) represent the relaxation rate of the respective solvent and CGd the concentration of the compound normalized to the Gadolinium (Table 2).

[3] = Chemical stability (autoclaving at 121° C.); settings: 5 mmol Gd/L in 10 mM Tris-HCl buffer, pH 7.4, 121° C. for 20 min
[4] = Water solubility; settings: 10 mM Tris-HCl buffer, 20° C.
Description: The water solubility of the compounds was determined at room temperature (20° C.) in 0.5 mL buffer solution (10 mM Tris-HCl) in the microcentrifuge tubes (Eppendorf, 2.0 mL safe-lock caps). The solid compound was added stepwise to the buffer solution. The suspension was mixed using a shaker (Heidolph Reax 2000) and treated 5 min in an ultrasound bath (Bandelin, Sonorex Super RK255H) The suspension was stored at room temperature (20° C.) over night and final Gadolinium concentration was determined by inductively coupled plasma mass spectrometry (ICP-MS).

Row | Molecule | r1 FBS [1] | r1 human plasma [1] | r1 water [1] | r1 human plasma [2] | r1 water [2] | appearance of the solution after autoclaving [3] | Solubility [4]
1 | CC(C(=O)NCC(=O)NCC(CNC(=O)CNC(=O)C(C)N1CCN(CC(=O)[O-])CCN(CC(=O)[O-])CCN(CC(=O)[O-])CC1)C(=O)NCCN(CCNC(=O)C(CNC(=O)CNC(=O)C(C)N1CCN(CC(=O)[O-])CCN(CC(=O)[O-])CCN(CC(=O)[O-])CC1)CNC(=O)CNC(=O)C(C)N1CCN(CC(=O)[O-])CCN(CC(=O)[O-])CCN(CC(=O)[O-])CC1)C(=O)CNC(=O)C(C)N1CCN(CC(=O)[O-])CCN(CC(=O)[O-])CCN(CC(=O)[O-])CC1)N1CCN(CC(=O)[O-])CCN(CC(=O)[O-])CCN(CC(=O)[O-])CC1.[Gd+3].[Gd+3].[Gd+3].[Gd+3].[Gd+3] (stereo not drawn) [Example 1] | 13.2 L/mmol/s | 13.0 L/mmol/s | 11.1 L/mmol/s | 10.8 ± 0.1 L/mmol/s | 9.5 ± 0.2 L/mmol/s | still clear and colorless | >1200 mmol Gd/L
2 | CC(C(=O)NCC(=O)N(CCNC(=O)C1CN(C(=O)CNC(=O)C(C)N2CCN(CC(=O)[O-])CCN(CC(=O)[O-])CCN(CC(=O)[O-])CC2)CCN(C(=O)CNC(=O)C(C)N2CCN(CC(=O)[O-])CCN(CC(=O)[O-])CCN(CC(=O)[O-])CC2)C1)CCNC(=O)C1CN(C(=O)CNC(=O)C(C)N2CCN(CC(=O)[O-])CCN(CC(=O)[O-])CCN(CC(=O)[O-])CC2)CCN(C(=O)CNC(=O)C(C)N2CCN(CC(=O)[O-])CCN(CC(=O)[O-])CCN(CC(=O)[O-])CC2)C1)N1CCN(CC(=O)[O-])CCN(CC(=O)[O-])CCN(CC(=O)[O-])CC1.[Gd+3].[Gd+3].[Gd+3].[Gd+3].[Gd+3] (stereo not drawn) [Example 4, Pentagadolinium [4-(1-{[2-(bis{2-[({1,4-bis[({2-[4,7,10-tris(carboxylatomethyl)-1,4,7,10-tetraazacyclododecan-1-yl]propanoyl}amino)acetyl]-1,4-diazepan-6-yl}carbonyl)-amino]ethyl}amino)-2-oxoethyl]amino}-1-oxopropan-2-yl)-7,10-bis(carboxylatomethyl)-1,4,7,10-tetraazacyclododecan-1-yl]acetate] | 13.3 L/mmol/s | 13.2 L/mmol/s | 11.5 L/mmol/s | 11.8 ± 0.3 L/mmol/s | 10.1 ± 0.2 L/mmol/s |  | >1200 mmol Gd/L
3 | Hexagadolinium 2,2′,2″,2′″,2″″,2′″″,2″″″,2′″″″,2″″″″,2′″″″″,2″″″″″,2′″″″″″,2″″″″″″, 2′″″″″″″,2″″″″″″″, 2′″″″″″″″,2″″″″″″″″,2′″″″″″″″″-{ethane-1,2-diylcarbamoyl-1,4-diazepane-6,1,4-triyltris[(2-oxoethane-2,1-diyl)imino(1-oxopropane-1,2-diyl)-1,4,7,10-tetraazacyclododecane-10,1,4,7-tetrayl]}octadecaacetate [Example 5] | 14.6 L/mmol/s | 14.3 L/mmol/s | 13.0 L/mmol/s | 12.4 ± 0.2 L/mmol/s | 10.8 ± 0.3 L/mmol/s |  | >1100 mmol Gd/L
4 | CC(C(=O)NCC(=O)NCC(CNC(=O)CNC(=O)C(C)N1CCN(CC(=O)[O-])CCN(CC(=O)[O-])CCN(CC(=O)[O-])CC1)C(=O)NCCN(CCNC(=O)C(CNC(=O)CNC(=O)C(C)N1CCN(CC(=O)[O-])CCN(CC(=O)[O-])CCN(CC(=O)[O-])CC1)CNC(=O)CNC(=O)C(C)N1CCN(CC(=O)[O-])CCN(CC(=O)[O-])CCN(CC(=O)[O-])CC1)C(=O)C(CNC(=O)CNC(=O)C(C)N1CCN(CC(=O)[O-])CCN(CC(=O)[O-])CCN(CC(=O)[O-])CC1)CNC(=O)CNC(=O)C(C)N1CCN(CC(=O)[O-])CCN(CC(=O)[O-])CCN(CC(=O)[O-])CC1)N1CCN(CC(=O)[O-])CCN(CC(=O)[O-])CCN(CC(=O)[O-])CC1.[Gd+3].[Gd+3].[Gd+3].[Gd+3].[Gd+3].[Gd+3] (stereo not drawn) [Example 2] | 13.4 L/mmol/s | 13.9 L/mmol/s | 12.1 L/mmol/s | 11.4 ± 0.1 L/mmol/s | 9.2 ± 0.3 L/mmol/s | still clear and colorless | >1200 mmol Gd/L
5 | Hexagadolinium 2,2′,2″,2′″,2″″,2′″″,2″″″,2′″″″,2″″″″,2′″″″″,2″″″″″,2′″″″″″,2″″″″″″, 2′″″″″″″,2″″″″″″″, 2′″″″″″″″,2″″″″″″″″,2′″″″″″″″″-(1,4,7-triazonane-1,4,7-triyltris{carbonyl- 1,4-diazepane-6,1,4-triylbis[(2-oxoethane-2,1-diyl)imino(1-oxopropane-1,2-diyl)-1,4,7,10-tetraazacyclododecane-10,1,4,7-tetrayl]})octadecaacetate [Example 6] | 14.2 L/mmol/s | 14.6 L/mmol/s | 13.4 L/mmol/s | 12.8 ± 0.3 L/mmol/s | 11.3 ± 0.4 L/mmol/s | still clear and colorless | >1100 mmol Gd/L

Source: US11491245B2, “Gadolinium chelate compounds for use in magnetic resonance imaging” (BAYER PHARMA AKTIENGESELLSCHAFT, priority 2015, dated 2022)
